This test relates to amputated P2 bone. Put plainly: Multiple treatments targeting chondrogenesis after P2 amputation. The class given is in vivo, adult CD-1 mice. Conditions: 98 days after amputation.

Method: Amputation Surgery and Device Attachment and Removal—All experiments were performed under the approval of Tuft's IACUC. All animals were housed in 12-hour light and dark cycles and fed using the recommended feed. Female CD-1 (Charles River Laboratories, Wilmington, MA) and FVB/NJ mice (Jackson Laboratories, Bar Harbor, ME) from 8 to 10 weeks of age were used in the study. Animals were anesthetized with isoflurane administered at 2 to 5% air composition. For single treatment (FIG. 20A), P2 amputation in hindlimb digit 3 was made using a scalpel under a dissection microscope. Immediately after P2 amputation, the dragonskin insert containing silk hydrogel with or without bioactive molecules was then attached to the amputated digit using Skin Tite™ Bioadhesive (Smooth-On, PA). Prior to hydrogel loading, all materials and tools used in the experiment (e.g. surgical tools and device components) were autoclaved to ensure sterility. Devices were attached for various time periods and the amputation digits were then allowed to heal after device removal. For the approach to target active chondrogenesis (FIG. 20B), hindlimb digit 3 was amputated at P2 level and allowed to heal conservatively for 7 to 9 days. […]

Take insulin-like growth factor-1 [IGF-1]: the P2 bone elongation entry was “promote P2 bone elongation”.
